Test system: sows
Experiment: Oral L-arginine supplementation of sows during pregnancy
Format: in vivo, pigs
Method: The experiment was performed with 197 sows that had already produced at least one litter. Sows in the control group (n=95) received a normal diet during gestation. Sows in the L-arginine group (n=102) received a normal diet from insemination until day 13 of pregnancy, an L-arginine supplemented diet from day 14 until day 31, again the control diet from day 32 until day 104 and again the L-arginine supplemented diet from day 105 until farrowing.
The L-arginine supplemented diet was the same as the control diet, except for the addition of 10 g L-arginine per kg.

## N=C(N)NCCC[C@H](N)C(=O)O [L-arginine]
41 sows of the L-arginine group, same percentage as control
  Sows (litters) with stillborn piglets: 47.1%
Not significantly different from control
  Average number of stillborn piglets in litters with stillborn piglets: 1.86±0.22
Piglets born alive, corrected for litter size
  Birth weight NBA corrected for LS: 1597 ± 24 g
Piglets born alive, not corrected for litter size
  Birth weight NBA: 1584 ± 27 g
Piglets per litter, corrected for parity, L-arginine diet day 14-31 and day 105 until farrowing, p<0.05 vs control
  Total number born + mummies: 12.74 ± 0.31
Piglets per litter, L-arginine diet day 14-31 and day 105 until farrowing, p<0.05 vs control
  Total number born (TNB): 12.69 ± 0.31
Piglets per litter, L-arginine diet day 14-31 and day 105 until farrowing, p=0.055 vs control
  Number born alive (NBA): 11.77 ± 0.30^+
piglets, total number born, corrected for litter size
  Birth weight TNB corrected for LS: 1578 ± 23 g
piglets, total number born, not corrected for litter size
  Birth weight TNB: 1563 ± 27 g
sows, diet with 10 g L-arginine per kg added, day 14-31 and day 105 until farrowing, 87/102
  Farrowing rate: 85%
Versus control group
  Effect on litter size (total number born and number born alive), piglets extra: ~1 piglet

— patent publication US8303979B2, “Dietary modifications to improve fertility” (Nutreco Nederland B.V., priority 2001, dated 2012)
